The text below walks through data of article PMC8222254, “Self-assembly of an anion receptor with metal-dependent kinase inhibition and potent in vitro anti-cancer properties” (Nature Communications, 2021).

Holding throughout (test): Chemosensitivity, 96 h continuous exposure, MTT assay
What all share (type): cell-based, human
(Tetrazolium assays rely on reduction of a dye to a coloured formazan, in cell work by metabolically active cells.)

One experiment relates to ARPE-19 non-cancer cells. An excerpt: (§1) All cell lines were purchased from and maintained as monolayers as described by the American Type Culture Collection with the exception of the p53^+/+ and p53^−/− isogenic clones of HCT116 human colorectal adenocarcinoma cells which were a kind gift from Professor Bert Vogelstein[54]. GBM1 cells were established from a primary GBM tumour by Heiko Wurdak and colleagues[32],[33]. Non-cancerous adult brain neural progenitor (NP1) cells were derived from a patient undergoing surgery to treat epilepsy[32],[33]. Cell culture and growth media for NP1 and GBM1 cells were as described[32],[33]. The response of cells following a continuous 96-h exposure to test compounds and platinates was determined using the MTT assay. Potency was recorded as the IC50 and the selectivity index (SI) was defined as the ratio of IC50 values for non-cancer to cancer cell lines with values >1 representing selectivity for cancer cells as opposed to non-cancer cells.
(§2) All cell lines used were maintained at low passage in antibiotic-free media. HT29, DLD-1, HCT116 p53^+/+ and HCT116 p53^−/− are all colorectal adenocarcinoma cell lines derived from different individuals and harbour different combinations of oncogenic lesions (except for the HCT116 isogenic cancer cell clones that are genetically identical except for p53 status). PSN-1, BxPC-3 and MiaPaCa2 are pancreatic carcinoma cell lines and A549 and H460 are lung carcinoma cell lines. HT29, DLD-1, PSN-1, BxPC-3, A549 and H460 cell lines were cultured in RPMI-1640 growth media (Sigma) containing 2 mM L-glutamine, 1 mM sodium pyruvate and 10% foetal bovine serum (FBS). HCT116 (p53^+/+ and p53^−/−) and MiaPaCa2 cell lines were cultured in Dulbecco’s Modified Eagle’s Medium (Sigma), 2 mM L-glutamine and 10% FBS. The ARPE-19 retinal epithelial non-cancer cell line was cultured in DMEM/F12 media (Gibco), 2 mM L-glutamine, 1 mM sodium pyruvate and 10% FBS. The MCF10A non-cancerous human breast epithelial cell line was cultured in Minimal Essential Media Eagle (Sigma), 2 mM L-glutamine, 1 mM sodium pyruvate, 10% FBS and 1x non-essential amino acids (NEAA). NP1 and GBM1 cells were cultured on plasticware coated with poly-L-ornithine (5 µg/ml) and laminin (2.4 µg/ml)[32],[33]. NP1 cells were grown in DMEM/F12 media (Gibco) supplemented with 5% FBS, 20 ng/ml hFGF, 20 ng/ml rhEGF, 0.5x B-27 supplement (Gibco), 0.5x N-2 supplement (Gibco) and 1x GLUTAMAX (Gibco). GBM1 cells were cultured in Neurobasal media (Gibco) supplemented with 40 ng/ml hFGF, 40 ng/ml rhEGF, 0.5x B-27 supplement (Gibco) and 0.5x N-2 supplement (Gibco).
(§3) [L2(Metal)3]^6+ and all the other self-assembling complexes were freshly formed by adding DMSO to individual components and mixing together by pipetting. These were then further diluted in cell culture media such that the final DMSO concentration that cells were exposed to was 0.2% (vehicle control). Cisplatin, oxaliplatin and carboplatin were dissolved in phosphate buffered saline. Cell lines were seeded into 96 well plates at 2 × 10^3 cells per well and incubated overnight at 37 °C. GBM1 cancer stem-like cells were seeded at 3 × 10^3 cells per well and NP1 neural progenitors were seeded at 1.5 × 10^3 cells per well. The following day, media was removed and replaced with fresh media containing test compounds at a range of concentrations. Cells were incubated with test compounds for a further 96 h after which the media was removed and replaced with fresh media (200 μl/well). MTT was added (20 μl at 5 mg/ml) and cells were incubated for a further 4 h. Media and MTT were removed and formazan crystals were dissolved in 150 μl of DMSO and the absorbance of the resulting solution determined at 540 nm. Dose response curves were constructed, and the concentration required to reduce cell growth by 50% (IC50) determined.

In another experiment the test system is HCT116 p53+/+. As to conditions: for SI (ARPE19): mean IC50 ARPE-19 / mean IC50 HCT116 p53+/+; for Selectivity index (ARPE19): IC50 ARPE-19 / IC50 HCT116 p53+/+.
Excerpt: as §1, §2, §3

The test system of another experiment is HCT116 p53-/-. To be noted: for SI (ARPE19): mean IC50 ARPE-19 / mean IC50 HCT116 p53-/-; for Selectivity index (ARPE19): IC50 ARPE-19 / IC50 HCT116 p53-/-.
Excerpt: as §1, §2, §3

The subject of the next experiment is MiaPaCa2. As to conditions: for IC50: MiaPaCa2, 96 h, MTT; for SI (ARPE19): mean IC50 ARPE-19 / mean IC50 MiaPaCa2.
Excerpt: as §1, §2, §3

Setting [1] is: ARPE-19, 96 h, MTT, individual run, read-out: IC50 values for each replicate.
[2] abbreviates: ARPE-19, 96 h, MTT, mean of at least 3 independent experiments, read-out: Mean IC50.
The mark [3] stands for this setting: HCT116 p53+/+, 96 h, MTT, individual run, read-out: IC50 values for each replicate.
Setting [4] is: HCT116 p53+/+, 96 h, MTT, mean of at least 3 independent experiments, read-out: Mean IC50.
The mark [5] stands for this setting: HCT116 p53-/-, 96 h, MTT, individual run, read-out: IC50 values for each replicate.
Setting [6] is: HCT116 p53-/-, 96 h, MTT, mean of at least 3 independent experiments, read-out: Mean IC50.
Setting [7] is: individual run, read-out: IC50 values for each replicate.
Where [8] appears, read: mean of at least 3 independent experiments, read-out: Mean IC50.
Where [9] appears, read: ARPE19, individual replicate experiments, read-out: IC50 values.
The mark [10] stands for this setting: HCT116 p53+/+, individual replicate experiments, read-out: IC50 values.
[11] abbreviates: HCT116 p53-/-, individual replicate experiments, read-out: IC50 values.
Where [12] appears, read: ARPE-19 non-cancer, read-out: Mean IC50 values.
Setting [13] is: HCT116 p53+/+, read-out: Mean IC50 values.
Setting [14] is: HCT116 p53-/-, read-out: Mean IC50 values.

Structures are written as SMILES. Several values for one entry are separate records, joined by “and”; a condition that tells them apart may be missing. Equal entries are not always repeated. Where two headings read alike, the source gives them in different places.

By IC50 is commonly meant the midpoint of a concentration-inhibition curve. For the molecule `N.N.O=C([O-])C1(C(=O)[O-])CCC1.[Pt+2]` [Carboplatin, carboplatin, reference compound], the IC50 is 87.6 µM and 79 µM and 66.6 µM with ARPE-19 non-cancer cells (setting [1]); 77.7 µM in the experiment with ARPE-19 non-cancer cells (setting [2]); 43.3 µM and 21 µM and 32.9 µM in the experiment with HCT116 p53+/+ (setting [3]); 32.4 µM with HCT116 p53+/+ (setting [4]); 45.8 µM and 28.2 µM and 33.1 µM in the experiment with HCT116 p53-/- (setting [5]); 35.7 µM with HCT116 p53-/- (setting [6]). Besides, the IC50 was 30.3 µM and 44.7 µM and 31.8 µM in the experiment on MiaPaCa2 (setting [7]); 35.6 µM in the experiment with MiaPaCa2 (setting [8]). For the same molecule, the “SI (ARPE19)” value is reported as 2.401 with HCT116 p53+/+, 2.177 with HCT116 p53-/- and 2.184 in the experiment on MiaPaCa2.

As to `N.N.[Cl][Pt][Cl]` [Cisplatin, cisplatin, reference compound], the IC50 with ARPE-19 non-cancer cells (setting [1]) is 6.07 µM and 7.48 µM and 5.69 µM; in the experiment on ARPE-19 non-cancer cells (setting [2]), 6.41 µM; with HCT116 p53+/+ (setting [3]) it was 2.84 µM and 3.35 µM and 3.58 µM; in the experiment on HCT116 p53+/+ (setting [4]), 3.26 µM; with HCT116 p53-/- (setting [5]), 7.14 µM and 7.16 µM and 8.27 µM; in the experiment on HCT116 p53-/- (setting [6]) it was 7.52 µM. For the same molecule, the IC50 with MiaPaCa2 (setting [7]) is 3.69 µM and 2.84 µM and 4.32 µM; with MiaPaCa2 (setting [8]) it was 3.62 µM. Besides, the figures for the “SI (ARPE19)” value with HCT116 p53+/+, with HCT116 p53-/- and in the experiment on MiaPaCa2 were 1.966, 0.852 and 1.771, respectively.

`c1ccc(-c2csc(NCCN(CCNc3nc(-c4ccccc4)cs3)CCNc3nc(-c4ccccc4)cs3)n2)cc1` [L]: the IC50 in the experiment on ARPE-19 non-cancer cells (setting [9]) is 4.96 µM and 6.38 µM; with ARPE-19 non-cancer cells (Homo sapiens, ARPE-19, ARPE19, individual replicate experiments, read-out: IC50 values), 4.89 µM; with ARPE-19 non-cancer cells (Homo sapiens, ARPE-19, ARPE-19 non-cancer, read-out: Mean IC50 values) it was 5.41 µM; in the experiment with HCT116 p53+/+ (setting [10]), 0.173 µM and 0.524 µM and 0.141 µM; in the experiment with HCT116 p53+/+ (Homo sapiens, HCT-116, HCT116 p53+/+, read-out: Mean IC50 values) it was 0.279 µM; in the experiment with HCT116 p53-/- (setting [11]), 0.074 µM and 0.081 µM. Also, the IC50 in the experiment on HCT116 p53-/- (Homo sapiens, HCT-116, HCT116 p53-/-, individual replicate experiments, read-out: IC50 values) is 0.054 µM; in the experiment with HCT116 p53-/- (Homo sapiens, HCT-116, HCT116 p53-/-, read-out: Mean IC50 values), 0.07 µM. Moreover, the “Selectivity index (ARPE19)” value was 19.369 and 19.36 with HCT116 p53+/+; 77.506 in the experiment on HCT116 p53-/-.

Regarding `O=C1[O][Pt]2([NH][C@@H]3CCCC[C@H]3[NH]2)[O]C1=O` [Oxaliplatin, oxaliplatin, reference compound], the IC50 in the experiment with ARPE-19 non-cancer cells (setting [1]) was 2.83 µM and 3.1 µM and 3.39 µM; with ARPE-19 non-cancer cells (setting [2]), 3.12 µM; in the experiment with HCT116 p53+/+ (setting [3]) it was 1.05 µM and 0.89 µM and 0.84 µM; with HCT116 p53+/+ (setting [4]), 0.93 µM; with HCT116 p53-/- (setting [5]), 5.46 µM and 2.46 µM and 3.06 µM; in the experiment with HCT116 p53-/- (setting [6]), 3.67 µM. The IC50 is 5.23 µM and 7.06 µM and 7.02 µM in the experiment on MiaPaCa2 (setting [7]); 6.44 µM with MiaPaCa2 (setting [8]). In addition, the “SI (ARPE19)” value with HCT116 p53+/+ is 3.355; in the experiment on HCT116 p53-/-, 0.850; with MiaPaCa2, 0.484.

In the case of `[Cu+2].c1ccc(-c2csc(NCCN(CCNc3nc(-c4ccccn4)cs3)CCNc3nc(-c4ccccn4)cs3)n2)nc1` [[LCu]2+], the IC50 with ARPE-19 non-cancer cells (setting [9]) was 5.93 µM and 5.5 µM and 6.33 µM; in the experiment with ARPE-19 non-cancer cells (setting [12]), 5.92 µM; in the experiment on HCT116 p53+/+ (setting [10]) it was 0.512 µM and 0.583 µM and 0.251 µM; in the experiment with HCT116 p53+/+ (setting [13]) it was 0.449 µM; with HCT116 p53-/- (setting [11]), 0.049 µM and 0.045 µM and 0.083 µM; in the experiment on HCT116 p53-/- (setting [14]), 0.059 µM. The “Selectivity index (ARPE19)” value in the experiment on HCT116 p53+/+ was found to be 13.19; with HCT116 p53-/-, 100.09.

With `[Zn+2].c1ccc(-c2csc(NCCN(CCNc3nc(-c4ccccn4)cs3)CCNc3nc(-c4ccccn4)cs3)n2)nc1` [[LZn]2+], the IC50 is 5.39 µM and 4.76 µM and 5.09 µM with ARPE-19 non-cancer cells (setting [9]); 5.08 µM in the experiment with ARPE-19 non-cancer cells (setting [12]); 0.483 µM and 0.549 µM and 0.244 µM in the experiment with HCT116 p53+/+ (setting [10]); 0.425 µM with HCT116 p53+/+ (setting [13]); 0.054 µM and 0.063 µM and 0.087 µM in the experiment with HCT116 p53-/- (setting [11]); 0.068 µM in the experiment on HCT116 p53-/- (setting [14]). Besides, the “Selectivity index (ARPE19)” value turned out to be 11.94 with HCT116 p53+/+ and 74.47 with HCT116 p53-/-.
